Test results as given in paper PMC4498294, “Tetrahydroisoquinolines affect the whole-cell phenotype of Mycobacterium tuberculosis by inhibiting the ATP-dependent MurE ligase” (Journal of Antimicrobial Chemotherapy, 2015).
Converted amounts (≈) assume the structure as drawn. “And” between values parts separate entries of the source, which are not always exact repeats. Identical values can stand only once. Like-named read-outs stand apart in the source and are kept apart here.

Key:
[1] = test system: murine macrophage cell line RAW264.7; test: Eukaryotic cell toxicity assay, RAW264.7; assay type: cell-based; settings: Mus musculus
M. bovis BCG Pasteur = test: microbe, parasite or virus in culture; assay type: cell-based; settings: for MIC: Mycobacterium tuberculosis variant bovis BCG, BCG; for MIC M. bovis BCG: SPOTi, 2 weeks at 37°C
R. equi RHA1 = test: SPOTi assay, R. equi RHA1; assay type: cell-based, Rhodococcus equi; settings: 30°C 48 h; for MIC: Rhodococcus (subgen. Prescottella) equi, RHA1, LB
P. putida = test: SPOTi assay, P. putida; assay type: cell-based, Pseudomonas putida; settings: LB, 37°C overnight; for MIC: Pseudomonas putida
M. smegmatis mc^2155 = test: SPOTi assay, M. smegmatis; assay type: cell-based, Mycobacterium smegmatis; settings: for MIC: Mycolicibacterium smegmatis, MC^2155
M. tuberculosis H37Rv = test: SPOTi growth inhibition assay, M. tuberculosis H37Rv; assay type: cell-based; settings: for MIC: Mycobacterium tuberculosis, H37RV
M. aurum = test: SPOTi assay, M. aurum; assay type: cell-based, Mycobacterium aurum; settings: for MIC: Mycolicibacterium aurum
E. coli K12 = test: SPOTi assay, E. coli; assay type: cell-based, Escherichia coli; settings: 37°C overnight; for MIC: Escherichia coli, K12, LB
[2] = target: MurE (Rv2158c) protein of M. tuberculosis H37Rv (Mycobacterium tuberculosis, UniProt P9WJL3); test: Mtb-MurE HPLC inhibition assay; assay type: biochemical; settings: HPLC assay, 37°C 30 min
Chain of MurE (Rv2158c) protein of M. tuberculosis H37Rv (P9WJL3 whole entry, looked up): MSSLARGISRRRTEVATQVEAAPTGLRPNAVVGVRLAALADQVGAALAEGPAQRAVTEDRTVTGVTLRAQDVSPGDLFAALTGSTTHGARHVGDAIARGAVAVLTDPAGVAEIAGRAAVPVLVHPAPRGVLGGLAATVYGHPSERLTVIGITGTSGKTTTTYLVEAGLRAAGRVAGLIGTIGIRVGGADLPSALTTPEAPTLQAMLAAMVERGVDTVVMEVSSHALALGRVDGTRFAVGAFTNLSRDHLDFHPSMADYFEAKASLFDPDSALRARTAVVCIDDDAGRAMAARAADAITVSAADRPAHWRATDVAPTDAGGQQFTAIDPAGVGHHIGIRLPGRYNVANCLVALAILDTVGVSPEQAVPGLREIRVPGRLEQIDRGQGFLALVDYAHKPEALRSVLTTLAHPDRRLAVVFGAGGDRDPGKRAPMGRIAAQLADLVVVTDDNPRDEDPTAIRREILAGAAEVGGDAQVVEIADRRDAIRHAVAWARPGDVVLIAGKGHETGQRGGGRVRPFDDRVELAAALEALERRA

[3] = RAW264.7, value in square brackets, read-out: GIC50 RAW264.7
[4] = murine macrophage cell line RAW264.7, read-out: GIC50 RAW264.7
[5] = 336 h, read-out: MIC M. bovis BCG, SPOTi, 2 weeks at 37°C
[6] = read-out: MIC M. bovis BCG, SPOTi, value in square brackets
[7] = 336 h, SPOTi, 2 weeks at 37°C, read-out: MIC M. tuberculosis H37Rv
[8] = SPOTi, value in square brackets, read-out: MIC M. tuberculosis H37Rv
[9] = 336 h, read-out: MIC M. tuberculosis H37Rv, SPOTi, 2 weeks at 37°C
[10] = RAW264.7, read-out: GIC50 RAW264.7

Structure (SMILES)	IC50 [1, 3] [µM]	IC50 [1, 4] [µg/mL]	MIC (M. bovis BCG Pasteur; [5]) [µg/mL]	MIC (M. bovis BCG Pasteur; [6]) [µM]	further results
Oc1cc2c(cc1O)C(c1ccccn1)NCC2 (stereo not drawn) [Compound 4]	248	60	> 100	> 413	–
COc1ccc(Cl)c2c1C(Cc1ccc3c(c1)OCO3)NCC2 (stereo not drawn) [Compound 36]	124	41	40	121	MIC (R. equi RHA1): > 100 µg/mL; MIC (P. putida): > 100 µg/mL; MIC (M. smegmatis mc^2155): 60 µg/mL (≈ 181 µM); MIC (M. tuberculosis H37Rv; [7]): 60 µg/mL; MIC (M. tuberculosis H37Rv; [8]): 181 µM; MIC (M. aurum): 60 µg/mL (≈ 181 µM); MIC (E. coli K12): > 100 µg/mL
Oc1ccc(C2NCCc3cc(O)c(O)cc32)cc1 (stereo not drawn) [Compound 6]	358	92	> 100	> 389	–
COc1cc2c(c(O)c1OC)C[C@H]1c3c(cc4c(c3-2)OCO4)CCN1C [(S)-Leucoxine (1), (S)-Leucoxine]	352	125	25	70	MIC (M. tuberculosis H37Rv; [7]): 30 µg/mL; MIC (M. tuberculosis H37Rv; [8]): 84 µM; IC50 [2]: 820 µM
O=C(O)[C@@H]1Cc2cc(O)c(O)cc2C(Cc2ccc3c(c2)OCO3)N1 (stereo partly drawn) [Compound 26]	533	183	> 100	> 291	–
Oc1ccc2c(c1)CCNC2Cc1ccccc1 (stereo not drawn) [Compound 16]	683	195	> 60	418	MIC M. bovis BCG (M. bovis BCG Pasteur): 100 µg/mL (≈ 418 µM)
Oc1cc2c(c(O)c1O)C(c1cccc3c1OCO3)NCC2 (stereo not drawn) [Compound 33]	18	5.5	> 100	> 332	IC50 [2]: 148 µM
Nc1ccc2c(c1)CCNC2Cc1ccccc1 (stereo not drawn) [Compound 15]	789	188	> 100	> 420	–
Oc1ccc2c(c1)CCNC2Cc1ccc2c(c1)OCO2 (stereo not drawn) [Compound 27]	529	150	100	353	IC50 [2]: > 1000 µM
Oc1cc2c(cc1O)[C@@H](O)CNC2c1cccc2c1OCO2 (stereo partly drawn) [Compound 30]	295	89	> 100	> 332	–
Oc1cccc(C2NCCc3cc(O)c(O)cc32)c1 (stereo not drawn) [Compound 7]	342	88	> 100	> 389	–
Oc1cccc(CC2NCCc3cc(O)c(O)cc32)c1 (stereo not drawn) [Compound 17]	236	64	> 100	> 369	–
COc1ccc(C2NCCc3cc(O)c(O)cc32)cc1 (stereo not drawn) [Compound 5]	335	91	> 100	> 369	–
COc1ccc(CC2NCCc3cc(O)c(O)cc32)cc1OC (stereo not drawn) [Compound 18]	178	56	> 100	> 317	–
COc1ccc(Br)c2c1C(Cc1ccc3c(c1)OCO3)NCC2 (stereo not drawn) [Compound 37]	80	30	30	53	MIC (M. tuberculosis H37Rv; [9]): 40 µg/mL; MIC (M. tuberculosis H37Rv; [8]): 106 µM; MIC M. bovis BCG (M. bovis BCG Pasteur): 20 µg/mL (≈ 53.2 µM); IC50 [2]: 165 µM
CN1C[C@H](O)c2cc(O)c(O)cc2[C@H]1c1cccc2c1OCO2 [Compound 32]	574	181	> 100	> 317	–
COc1cccc2c1C(Cc1ccc3c(c1)OCO3)NCC2 (stereo not drawn) [Compound 40]	740	220	> 50	> 168	MIC (M. tuberculosis H37Rv; [7]): > 100 µg/mL; MIC (M. tuberculosis H37Rv; [8]): > 336 µM; IC50 [2]: 300 µM
Oc1cc2c(cc1O)C(c1cccs1)NCC2 (stereo not drawn) [Compound 9]	–	–	> 100	> 404	IC50 [1, 10]: 56 µg/mL and 226 µM
Oc1ccc(CC2NCCc3cc(O)c(O)cc32)cc1 (stereo not drawn) [Norcoclaurine (2), Norcoclaurine]	1570	425	> 100	> 369	IC50 [2]: 837 µM

Structure (SMILES)	IC50 [1, 3] [µM]	IC50 [1, 4] [µg/mL]	MIC (M. bovis BCG Pasteur; [5]) [µg/mL]	MIC (M. bovis BCG Pasteur; [6]) [µM]	further results
Oc1cc2c(cc1O)C(c1cncc3ccccc13)NCC2 (stereo not drawn) [Compound 12]	> 855	> 250	> 100	> 342	–
Oc1cc2c(cc1O)C(c1cccc3c1OCO3)NCC2 (stereo not drawn) [Compound 29]	263	75	> 100	> 351	IC50 [2]: 471 µM
COc1ccc(I)c2c1C(Cc1ccc3c(c1)OCO3)NCC2 (stereo not drawn) [Compound 38]	66	28	50	118	MIC (M. tuberculosis H37Rv; [7]): 30 µg/mL; MIC (M. tuberculosis H37Rv; [8]): 71 µM; IC50 [2]: < 111 µM
NC[C@H]1O[C@H](O[C@H]2[C@H](O)[C@@H](O[C@H]3O[C@H](CO)[C@@H](O)[C@H](N)[C@H]3O)[C@H](N)C[C@@H]2N)[C@H](O)[C@@H](O)[C@@H]1O [Kanamycin, reference compound]	–	–	–	–	MIC R. equi RHA1 (R. equi RHA1; LB): 1 µg/mL (≈ 2.06 µM); MIC P. putida (P. putida): 10 µg/mL (≈ 20.6 µM); MIC E. coli K12 (E. coli K12; LB): 1 µg/mL (≈ 2.06 µM)
O=C(O)[C@@H]1Cc2cc(O)c(O)cc2[C@@H](Cc2ccccc2)N1 [Compound 11]	291	87	> 100	> 334	–
OC[C@@H](O)[C@@H]1NCCc2cc(O)c(O)cc21 [Compound 14]	377	85	> 100	> 444	–
Oc1cc2c(cc1O)C(C1CCCCC1)NCC2 (stereo not drawn) [Compound 23]	182	45	> 100	> 404	MIC (M. tuberculosis H37Rv; [7]): > 100 µg/mL; MIC (M. tuberculosis H37Rv; [8]): > 404 µM
CC(C)=CCC[C@H](C)CC1NCCc2cc(O)c(O)cc21 (stereo partly drawn) [Compound 13]	> 864	> 250	> 60	346	MIC M. bovis BCG (M. bovis BCG Pasteur): 100 µg/mL (≈ 346 µM)
COc1cc(CC2NCCc3cc(O)c(O)cc32)ccc1O (stereo not drawn) [Compound 19]	166	50	> 100	> 332	–
C[C@@H]1NC(Cc2ccc3c(c2)OCO3)c2ccc(O)cc2[C@H]1O (stereo partly drawn) [Compound 25]	578	181	> 100	> 319	–
Oc1cc2c(cc1O)C(Cc1ccccc1Br)NCC2 (stereo not drawn) [Compound 21]	141	47	> 100	> 299	–
Oc1cc2c(cc1O)[C@@H](O)CN[C@H]2Cc1ccccc1 [Compound 10]	–	–	> 60	–	IC50 [1, 10]: > 250 µg/mL and > 566 µM; MIC (M. bovis BCG Pasteur; 336 h, read-out: MIC M. bovis BCG, SPOTi, value in square brackets): 271 µM; MIC M. bovis BCG (M. bovis BCG Pasteur): 100 µg/mL (≈ 369 µM)
Oc1cc2c(cc1O)C(Cc1ccccc1)NCC2 (stereo not drawn) [Compound 3]	313	81	> 100	> 392	–
CCCCCCCCCC1NCCc2cc(O)c(O)cc21 (stereo not drawn) [Compound 24]	5.5	1.6	> 60	275	MIC (R. equi RHA1): > 100 µg/mL; MIC (P. putida): > 100 µg/mL; MIC (M. smegmatis mc^2155): 100 µg/mL (≈ 343 µM); MIC (M. tuberculosis H37Rv; [9]): 80 µg/mL; MIC (M. tuberculosis H37Rv; [8]): 206 µM; MIC M. tuberculosis H37Rv (M. tuberculosis H37Rv; SPOTi, 2 weeks at 37°C): 60 µg/mL (≈ 206 µM); MIC (M. aurum): 100 µg/mL (≈ 343 µM); MIC M. bovis BCG (M. bovis BCG Pasteur): 80 µg/mL (≈ 275 µM); IC50 [2]: 186 µM; MIC (E. coli K12): > 100 µg/mL
CC1(C(=O)O)NCCc2cc(O)c(O)cc21 (stereo not drawn) [Compound 22]	797	178	> 100	> 448	–
Oc1cc2c(cc1O)C(c1ccccc1O)NCC2 (stereo not drawn) [Compound 8]	338	87	> 100	> 389	–
Oc1cc2c(cc1O)C(Cc1ccc3c(c1)OCO3)NCC2 (stereo not drawn) [Compound 20]	602	190	> 60	334	MIC (R. equi RHA1): > 100 µg/mL; MIC (P. putida): > 100 µg/mL; MIC M. smegmatis mc^2155 (M. smegmatis mc^2155): >100 µg/mL; MIC (M. smegmatis mc^2155): > 100 µg/mL; MIC M. aurum (M. aurum): >100 µg/mL; MIC (M. aurum): > 100 µg/mL; MIC M. bovis BCG (M. bovis BCG Pasteur): 100 µg/mL (≈ 334 µM); IC50 [2]: 237 µM; MIC (E. coli K12): > 100 µg/mL
CN1C[C@H](O)c2cc(O)c(O)cc2[C@@H]1c1cccc2c1OCO2 [Compound 31]	434	137	> 100	> 317	–
Oc1ccc2c(c1)CCNC2c1cccc2c1OCO2 (stereo not drawn) [Compound 34]	672	181	> 100	> 371	IC50 [2]: > 1000 µM
